The experiment deals with T1, human PF4 (Homo sapiens, UniProt P02776).
T1 construct: PF4 is a 70 amino acid, lysine-rich 7.8 kDa platelet-specific protein; made in house; host or cells: Escherichia coli BL21DE3 pLysS (pT7-7) and/or Drosophila S2 cells
T1 sequence (P02776 32-101): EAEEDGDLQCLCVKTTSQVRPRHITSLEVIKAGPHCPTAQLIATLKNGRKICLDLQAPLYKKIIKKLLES
In words: Inhibition of PF4 tetramer formation (BS3 cross-linking, SDS-PAGE). In kind it is biochemical. The note with it: for inhibition at 1 µM: 1 μM inhibitor; for inhibition at 1 µM / inhibition at 3 µM / inhibition at 5 µM / inhibition at 10 µM: read-out: % inhibition of PF4 tetramer formation at single concentration of inhibitor; for inhibition at 3 µM: 3 μM inhibitor (column A); for IC50: read-out: IC50 of PF4 tetramer formation inhibition; for inhibition at 5 µM: 5 μM inhibitor; for inhibition at 10 µM: 10 μM inhibitor (column A). The procedure, abridged: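 Monomer, dimer, trimer and tetramer fractions were quantified by densitometry after reducing 12% SDS-PAGE of BS3-cross-linked (0.2 mM, 30 min, room temperature) PF4. Before cross-linking, 10 μg/ml E. coli-expressed human WT PF4 in PBS was exposed to compound for 15 min at 37° C or 60 min at room temperature; controls lacked compound.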

This note sets out measurements from patent publication US20250281424A1 (New York Blood Center, Inc, priority 2020, published 2025).

In general, IC50 refers to the concentration that gives 50% inhibition.

On to `O=C1c2ccc(S(=O)(=O)c3ccc4c(c3)C(=O)C(C(=O)[C@H]3CCCN3)C4=O)cc2C(=O)C1C(=O)[C@@H]1CCNC1` (stereo partly drawn) [Example 350, 5-({1,3-dioxo-2-[(3R)-pyrrolidine-3-carbonyl]-2,3-dihydro-1H-inden-5-yl}sulfonyl)-2-[(2R)-pyrrolidine-2-carbonyl]-2,3-dihydro-1H-indene-1,3-dione], for which the inhibition at 1 µM came out at 18% and the inhibition at 3 µM turned out to be 39%.
For `O=C(O)CCC(=O)C1C(=O)c2ccc(C(=O)c3ccc4c(c3)C(=O)C(C(=O)CCC(=O)O)C4=O)cc2C1=O` (centres unmarked) [Example 130, 4-{5-[2-(3-carboxypropanoyl)-1,3-dioxo-2,3-dihydro-1H-indene-5-carbonyl]-1,3-dioxo-2,3-dihydro-1H-inden-2-yl}-4-oxobutanoic acid], the IC50 is 1400 nM.
Consider `O=C(Nc1cccc(Cl)c1)C1C(=O)c2ccc(S(=O)(=O)c3ccc4c(c3)C(=O)C(C(=O)Nc3cccc(Cl)c3)C4=O)cc2C1=O` (centres unmarked) [Example 86, N-(3-chlorophenyl)-5-({2-[(3-chlorophenyl)carbamoyl]-1,3-dioxo-2,3-dihydro-1H-inden-5-yl}sulfonyl)-1,3-dioxo-2,3-dihydro-1H-indene-2-carboxamide], for which the inhibition at 5 µM is 73% and the inhibition at 10 µM is 90%.
Turning to `O=C1c2ccc(Oc3ccc4c(c3)C(=O)C(C(=O)[C@@H]3C[C@H]3C(=O)O)C4=O)cc2C(=O)C1C(=O)[C@@H]1C[C@H]1C(=O)O` (stereo partly drawn) [Example 262, (1R,2R)-2-({5-[(2-{[(1R,2R)-2-carboxycyclopropyl](hydroxy)methylidene}-1,3-dioxo-2,3-dihydro-1H-inden-5-yl)oxy]-1,3-dioxo-2,3-dihydro-1H-inden-2-ylidene}(hydroxy)methyl)cyclopropane-1-carboxylic acid], the inhibition at 1 µM amounted to 49%, the inhibition at 3 µM was 67% and the IC50 came out at 1330 nM.
In the case of `CO[C@@H](C(=O)C1C(=O)c2ccc(S(=O)(=O)c3ccc4c(c3)C(=O)C(C(=O)[C@H](OC)c3ccccc3)C4=O)cc2C1=O)c1ccccc1` (stereo partly drawn) [Example 136, 2-[(2R)-2-methoxy-2-phenylacetyl]-5-({2-[(2R)-2-methoxy-2-phenylacetyl]-1,3-dioxo-2,3-dihydro-1H-inden-5-yl}sulfonyl)-2,3-dihydro-1H-indene-1,3-dione], the inhibition at 5 µM was determined as 75%, the inhibition at 10 µM was 86% and the IC50 was 18000 nM.
For `CC(C)C(=O)NCC(=O)C1C(=O)c2ccc(C(=O)c3ccc4c(c3)C(=O)C(C(=O)CNC(=O)C(C)C)C4=O)cc2C1=O` (centres unmarked) [Example 187, 2-methyl-N-[2-(5-{2-[2-(2-methylpropanamido)acetyl]-1,3-dioxo-2,3-dihydro-1H-indene-5-carbonyl}-1,3-dioxo-2,3-dihydro-1H-inden-2-yl)-2-oxoethyl]propanamide], the inhibition at 5 µM was 88%, the inhibition at 10 µM came to 90% and the IC50 came out at 2600 nM.
`COC1CCC(C(=O)C2C(=O)c3ccc(S(=O)(=O)c4ccc5c(c4)C(=O)C(C(=O)C4CCC(OC)CC4)C5=O)cc3C2=O)CC1` (centres unmarked) [Example 151, 2-(4-methoxycyclohexanecarbonyl)-5-{[2-(4-methoxycyclohexanecarbonyl)-1,3-dioxo-2,3-dihydro-1H-inden-5-yl]sulfonyl}-2,3-dihydro-1H-indene-1,3-dione]: the inhibition at 5 µM amounted to 89%, the inhibition at 10 µM came out at 100% and the IC50 was approximately 6000 nM.
With `CS(=O)(=O)N1CCC(NC(=O)C2C(=O)c3ccc(S(=O)(=O)c4ccc5c(c4)C(=O)C(C(=O)NC4CCN(S(C)(=O)=O)CC4)C5=O)cc3C2=O)CC1` (centres unmarked) [Example 364, N-(1-methanesulfonylpiperidin-4-yl)-5-({2-[(1-methanesulfonylpiperidin-4-yl)carbamoyl]-1,3-dioxo-2,3-dihydro-1H-inden-5-yl}sulfonyl)-1,3-dioxo-2,3-dihydro-1H-indene-2-carboxamide], the inhibition at 1 µM stood at 13%, the inhibition at 3 µM worked out at 74% and the IC50 is 1350 nM.
Regarding `O=C(NCc1ccco1)C1C(=O)c2ccc(S(=O)(=O)c3ccc4c(c3)C(=O)C(C(=O)NCc3ccco3)C4=O)cc2C1=O` (centres unmarked) [Example 104, N-[(furan-2-yl)methyl]-5-[(2-{[(furan-2-yl)methyl]carbamoyl}-1,3-dioxo-2,3-dihydro-1H-inden-5-yl)sulfonyl]-1,3-dioxo-2,3-dihydro-1H-indene-2-carboxamide], the IC50 came to 1400 nM.
Regarding `CC(C)(C)OC(=O)N1CC[C@@H](C(=O)C2C(=O)c3ccc(C(=O)c4ccc5c(c4)C(=O)C(C(=O)[C@@H]4CCN(C(=O)OC(C)(C)C)C4)C5=O)cc3C2=O)C1` (stereo partly drawn) [Example 123, tert-butyl (3R)-3-(5-{2-[(3R)-1-[(tert-butoxy)carbonyl]pyrrolidine-3-carbonyl]-1,3-dioxo-2,3-dihydro-1H-indene-5-carbonyl}-1,3-dioxo-2,3-dihydro-1H-indene-2-carbonyl)pyrrolidine-1-carboxylate], the inhibition at 5 µM was 88%, the inhibition at 10 µM turned out to be 89% and the IC50 stood at 1600 nM.
Regarding `CC(C)(C)OC(=O)N[C@@H](C(=O)C1C(=O)c2ccc(C(=O)c3ccc4c(c3)C(=O)C(C(=O)[C@H](NC(=O)OC(C)(C)C)c3ccccc3)C4=O)cc2C1=O)c1ccccc1` (stereo partly drawn) [Example 170, tert-butyl N-[(1R)-2-(5-{2-[(2R)-2-{[(tert-butoxy)carbonyl]amino}-2-phenylacetyl]-1,3-dioxo-2,3-dihydro-1H-indene-5-carbonyl}-1,3-dioxo-2,3-dihydro-1H-inden-2-yl)-2-oxo-1-phenylethyl]carbamate], the inhibition at 5 µM came out at 76%, the inhibition at 10 µM was found to be 85% and the IC50 turned out to be 3400 nM.
Turning to `CC(C)(C)OC(=O)N1CCC[C@H]1C(=O)C1C(=O)c2ccc(C(c3ccc4c(c3)C(=O)C(C(=O)[C@@H]3CCCN3C(=O)OC(C)(C)C)C4=O)(C(F)(F)F)C(F)(F)F)cc2C1=O` (stereo partly drawn) [Example 195, tert-butyl (2S)-2-[5-(2-{2-[(2S)-1-[(tert-butoxy)carbonyl]pyrrolidine-2-carbonyl]-1,3-dioxo-2,3-dihydro-1H-inden-5-yl}-1,1,1,3,3,3-hexafluoropropan-2-yl)-1,3-dioxo-2,3-dihydro-1H-indene-2-carbonyl]pyrrolidine-1-carboxylate], the IC50 was 4000 nM.
As to `O=C(c1ccc2c(c1)C(=O)C(C(=O)Cc1ccncc1)C2=O)c1ccc2c(c1)C(=O)C(C(=O)Cc1ccncc1)C2=O` (centres unmarked) [Example 239, 5-{1,3-dioxo-2-[2-(pyridin-4-yl)acetyl]-2,3-dihydro-1H-indene-5-carbonyl}-2-[2-(pyridin-4-yl)acetyl]-2,3-dihydro-1H-indene-1,3-dione], the inhibition at 3 µM is 100%.
Consider `C[C@H](NC(=O)OC(C)(C)C)C(=O)C1C(=O)c2ccc(C(=O)c3ccc4c(c3)C(=O)C(C(=O)[C@H](C)NC(=O)OC(C)(C)C)C4=O)cc2C1=O` (stereo partly drawn) [Example 179, tert-butyl N-[(2S)-1-(5-{2-[(2S)-2-{[(tert-butoxy)carbonyl]amino}propanoyl]-1,3-dioxo-2,3-dihydro-1H-indene-5-carbonyl}-1,3-dioxo-2,3-dihydro-1H-inden-2-yl)-1-oxopropan-2-yl]carbamate], for which the inhibition at 5 µM came out at 81%, the inhibition at 10 µM worked out at 92% and the IC50 is approximately 6000 nM.
